Test results: the NIST ThermoML archive (doi:10.1016/j.jct.2005.04.009)
Numbers after ± are expanded uncertainties.

Columns and labels:
[1] = 101.33 kPa, Liquid, Alternating current cell with electrodes
[2] = wn = mass fraction of the nth substance listed; settings: 100 kPa, Liquid, Alternating current cell with electrodes

Structure (SMILES)	electrical conductivity ([1]; 288.15 K) [S/m]	electrical conductivity ([1]; 293.15 K) [S/m]	electrical conductivity ([1]; 298.15 K) [S/m]	electrical conductivity ([1]; 308.15 K) [S/m]	electrical conductivity ([1]; 323.15 K) [S/m]	electrical conductivity ([2]; 288.15 K, w2 = 1e-05) [S/m]	electrical conductivity ([2]; 288.15 K, w2 = 8e-05) [S/m]	electrical conductivity ([2]; 288.15 K, w2 = 0.00102) [S/m]	electrical conductivity ([2]; 288.15 K, w2 = 0.00885) [S/m]	electrical conductivity ([2]; 293.15 K, w2 = 1e-05) [S/m]	electrical conductivity ([2]; 293.15 K, w2 = 8e-05) [S/m]	electrical conductivity ([2]; 293.15 K, w2 = 0.00102) [S/m]	electrical conductivity ([2]; 293.15 K, w2 = 0.00885) [S/m]	electrical conductivity ([2]; 298.15 K, w2 = 1e-05) [S/m]	electrical conductivity ([2]; 298.15 K, w2 = 8e-05) [S/m]	electrical conductivity ([2]; 298.15 K, w2 = 0.00102) [S/m]	electrical conductivity ([2]; 298.15 K, w2 = 0.00885) [S/m]
CCCCCC[n+]1ccn(C)c1.O=S(=O)([N-]S(=O)(=O)C(F)(F)F)C(F)(F)F	0.135 ± 0.02	0.173 ± 0.02	0.218 ± 0.02	0.327 ± 0.02	0.546 ± 0.02	–	–	–	–	–	–	–	–	–	–	–	–
CCCC[n+]1ccn(C)c1.O=S(=O)([N-]S(=O)(=O)C(F)(F)F)C(F)(F)F	0.265 ± 0.02	0.331 ± 0.02	0.406 ± 0.02	0.585 ± 0.02	0.924 ± 0.02	–	–	–	–	–	–	–	–	–	–	–	–
CCn1cc[n+](C)c1.O=S(=O)([N-]S(=O)(=O)C(F)(F)F)C(F)(F)F	0.644 ± 0.02	0.773 ± 0.02	0.912 ± 0.02	1.23 ± 0.02	1.79 ± 0.02	–	–	–	–	–	–	–	–	–	–	–	–
CCCC[n+]1ccn(C)c1.O=S(=O)([N-]S(=O)(=O)C(F)(F)F)C(F)(F)F + O	–	–	–	–	–	0.265 ± 0.02	0.266 ± 0.02	0.277 ± 0.02	0.365 ± 0.021	0.331 ± 0.02	0.332 ± 0.02	0.345 ± 0.02	0.449 ± 0.021	0.406 ± 0.02	0.408 ± 0.02	0.422 ± 0.02	0.542 ± 0.022
CCCCn1cc[n+](C)c1.F[P-](F)(F)(F)(F)F [1-butyl-3-methylimidazolium hexafluorophosphate]	0.079 ± 0.02	0.109 ± 0.02	0.146 ± 0.02	0.247 ± 0.02	0.477 ± 0.02	–	–	–	–	–	–	–	–	–	–	–	–
